{"source": "patent US20100278938A1", "about": "“GENETIC TEST AND PET DIET” (MARS, INC, priority 2007, published 2010)", "test": "Pharmacokinetic study of oral zinc gluconate, plasma zinc by atomic absorption spectrometry", "assay_type": "in vivo, Labrador Retrievers", "set-up": "unit not given here", "description": "Two unrelated nine-year old, healthy Labrador Retrievers (1 female and 1 male) were used in a pharmacokinetic study. Food was withheld for a 12-hour period prior to oral administration of zinc, and during the initial 6-hour testing period. Water was freely available. […] Heparinized blood samples (4 ml) were collected from the jugular vein before dosing (time 0) and 15, 30, 45, 60, 90, 120 minutes, and 4, 8, 12 and 24 hours after application of the drug. Plasma was stored at −20° C. until analysis for zinc using atomic absorption spectrometry.\nIn addition the test was used to detect a difference between group-1 and group-2 before the study, at recheck-1, and at recheck-2 (significance level p<0.05).", "data": [{"substance": "zinc gluconate", "values": [{"measurement": "K01: absorption rate constant", "setting": "Dog 1, oral 10 mg/kg", "result": 0.5672}, {"measurement": "K10: elimination rate constant", "setting": "Dog 1, oral 10 mg/kg", "result": 0.05373}, {"measurement": "K01: absorption rate constant", "setting": "Dog 2, oral 5 mg/kg", "result": 1.161}, {"measurement": "K10: elimination rate constant", "setting": "Dog 2, oral 5 mg/kg", "result": 0.03789}]}]}
